pEC50: −log10 of the molar value. Calls of active or inactive are those of the source.
Experiments:
Plasmodium berghei [1] = test: Antiplasmodial activity against Plasmodium berghei infected in Swiss Webster mouse model assessed as reduction in parasitemia at 80 mg/kg, po administered as single dose and measured after 30 days by Giemsa staining based microscopic analysis; assay type: functional, organism-based; settings: time 30.0 day
Plasmodium berghei [2] = test: Antiplasmodial activity against Plasmodium berghei infected in Swiss Webster mouse model assessed as reduction in parasitemia at 10 mg/kg, po administered once daily for 4 days and measured after 30 days by Giemsa staining based microscopic analysis; assay type: functional, organism-based; settings: time 30.0 day
Plasmodium berghei [3] = test: Antiplasmodial activity against Plasmodium berghei infected in Swiss Webster mouse model assessed as reduction in parasitemia at 2 mg/kg, po administered once daily for 4 days and measured after 11 days by Giemsa staining based microscopic analysis; assay type: functional, organism-based; settings: time 11.0 day
Plasmodium berghei [4] = test: Antiplasmodial activity against Plasmodium berghei infected in Swiss Webster mouse model assessed as reduction in parasitemia at 30 mg/kg, po administered as single dose and measured after 30 days by Giemsa staining based microscopic analysis; assay type: functional, organism-based; settings: time 30.0 day
Plasmodium berghei [5] = test: Antiplasmodial activity against Plasmodium berghei infected in Swiss Webster mouse model assessed as reduction in parasitemia at 2 mg/kg, po administered once daily for 4 days and measured after 30 days by Giemsa staining based microscopic analysis; assay type: functional, organism-based; settings: time 30.0 day
Plasmodium berghei [6] = test: Antiplasmodial activity against Plasmodium berghei infected in Swiss Webster mouse model assessed as reduction in parasitemia at 20 mg/kg, po administered as single dose and measured after 30 days by Giemsa staining based microscopic analysis; assay type: functional, organism-based; settings: time 30.0 day
Plasmodium berghei [7] = test: Antiplasmodial activity against Plasmodium berghei infected in Swiss Webster mouse model assessed as reduction in parasitemia at 4 mg/kg, po administered once daily for 4 days and measured after 11 days by Giemsa staining based microscopic analysis; assay type: functional, organism-based; settings: time 11.0 day
Plasmodium falciparum = test: Antiplasmodial activity against chloroquine-resistant ring stage Plasmodium falciparum W2 infected in human erythrocytes assessed as reduction in parasite growth incubated for 48 hrs by YOYO-1 dye based flow cytometric analysis; assay type: functional, organism-based; settings: W2, Erythrocyte
[8] = Stability in human liver microsomes assessed as intrinsic clearance at 1 uM measured upto 60 mins by LC-MS/MS analysis; assay type: ADME, Microsome; settings: read-out: CLH
Plasmodium berghei [9] = test: Antiplasmodial activity against Plasmodium berghei infected in Swiss Webster mouse model assessed as reduction in parasitemia at 4 mg/kg, po administered once daily for 4 days and measured after 30 days by Giemsa staining based microscopic analysis; assay type: functional, organism-based; settings: time 30.0 day
Plasmodium berghei [10] = test: Antiplasmodial activity against Plasmodium berghei infected in Swiss Webster mouse model assessed as reduction in parasitemia at 30 mg/kg, po administered as single dose and measured after 11 days by Giemsa staining based microscopic analysis; assay type: functional, organism-based; settings: time 11.0 day
Plasmodium berghei [11] = test: Antiplasmodial activity against Plasmodium berghei infected in Swiss Webster mouse model assessed as reduction in parasitemia at 6 mg/kg, po administered once daily for 4 days and measured after 30 days by Giemsa staining based microscopic analysis; assay type: functional, organism-based; settings: time 30.0 day
Plasmodium berghei [12] = test: Antiplasmodial activity against Plasmodium berghei infected in Swiss Webster mouse model assessed as reduction in parasitemia at 6 mg/kg, po administered once daily for 4 days and measured after 11 days by Giemsa staining based microscopic analysis; assay type: functional, organism-based; settings: time 11.0 day
Plasmodium berghei [13] = test: Antiplasmodial activity against Plasmodium berghei infected in Swiss Webster mouse model assessed as reduction in parasitemia at 80 mg/kg, po administered as single dose and measured after 11 days by Giemsa staining based microscopic analysis; assay type: functional, organism-based; settings: time 11.0 day
Plasmodium berghei [14] = test: Antiplasmodial activity against Plasmodium berghei infected in Swiss Webster mouse model assessed as reduction in parasitemia at 10 mg/kg, po administered once daily for 4 days and measured after 11 days by Giemsa staining based microscopic analysis; assay type: functional, organism-based; settings: time 11.0 day
Plasmodium berghei [15] = test: Antiplasmodial activity against Plasmodium berghei infected in Swiss Webster mouse model assessed as reduction in parasitemia at 40 mg/kg, po administered as single dose and measured after 30 days by Giemsa staining based microscopic analysis; assay type: functional, organism-based; settings: time 30.0 day
[16] = Aqueous solubility of the compound in PBS at pH 7.4; assay type: physicochemical
Plasmodium berghei [17] = test: Antiplasmodial activity against Plasmodium berghei infected in Swiss Webster mouse model assessed as reduction in parasitemia at 40 mg/kg, po administered as single dose and measured after 11 days by Giemsa staining based microscopic analysis; assay type: functional, organism-based; settings: time 11.0 day

c1cc([C@H]2CCC[C@@]3(C2)OOC2(O3)C3CC4CC(C3)CC2C4)ccc1OCCN1CCOCC1 (stereo not given in full)
7.62: pEC50 (Plasmodium falciparum)
21.3 µL/min/mg: microsomal CLint at 1 µM [8]
active: Activity (Plasmodium berghei [1]) | Activity (Plasmodium berghei [10]) | Activity (Plasmodium berghei [13])
inactive: Activity (Plasmodium berghei [2]) | Activity (Plasmodium berghei [3]) | Activity (Plasmodium berghei [4]) | Activity (Plasmodium berghei [5]) | Activity (Plasmodium berghei [6]) | Activity (Plasmodium berghei [7]) | Activity (Plasmodium berghei [9]) | Activity (Plasmodium berghei [11]) | Activity (Plasmodium berghei [12])

c1cc([C@H]2CC[C@@]3(CC2)OOC2(O3)C3CC4CC(C3)CC2C4)ccc1OCCN1CCOCC1 (stereo not given in full)
active: Activity (Plasmodium berghei [1]) | Activity (Plasmodium berghei [2]) | Activity (Plasmodium berghei [14]) | Activity (Plasmodium berghei [4]) | Activity (Plasmodium berghei [6]) | Activity (Plasmodium berghei [15]) | Activity (Plasmodium berghei [7]) | Activity (Plasmodium berghei [10]) | Activity (Plasmodium berghei [11]) | Activity (Plasmodium berghei [12]) | Activity (Plasmodium berghei [17]) | Activity (Plasmodium berghei [13])
7.95: pEC50 (Plasmodium falciparum)
< 2.5 µM: solubility [16]

O=C([O-])Cc1ccccc1Nc1c(Cl)cccc1Cl.[Na+] [DICLOFENAC SODIUM]
199 µM: solubility [16]

C[C@@H]1CC[C@H]2[C@@H](C)C(=O)O[C@@H]3O[C@@]4(C)CC[C@@H]1[C@]32OO4 [ARTEMISININ]
7.76: pEC50 (Plasmodium falciparum)
